Experimental data: patent US20120028995A1, “NOVEL COMPOUNDS FOR MEDICAL USE AS PEPTIDASE EFFECTORS” (IMTM GMBH, priority 2010, published 2012)
Like-named read-outs stand apart in the source and are kept apart here.

What was measured:
SZ95 cells = test: Inhibition of DNA synthesis and proliferation of immortalized human sebocytes SZ95; assay type: cell-based; settings: Homo sapiens, EGF-stimulated SZ95 sebocytes, tritium thymidine incorporation; read-out: Supp. DNA Synt. SZ95 IC50
Method: The immortalized human sebocyte line SZ95 was provided by Prof. C Zouboulis [C C Zouboulis, H Seltmann, H Neitzel, C E Orfanos, Establishment and characterization of an immortalized human sebaceous gland cell line (SZ95). J. Invest. Dermatol. 113(6):1011-1020 (1999), the entire disclosure of which is incorporated by reference herein]. These adherent growing cells were cultured in serum-free Sebomed Complete (Biochrom). Recombinant EGF was added in order to stimulate DNA synthesis and proliferation of the SZ95 cells. Test items were added in concentrations from 0.1 up to 100 μM.
The DNA synthesis of proliferating cells was detected by incorporation of radiolabelled tritium thymidine (3HT) and counting at a beta counter. Based on these raw data the relative proliferation response in relation to cells cultured in the absence of test compound (100% control) was calculated. IC50 values of proliferation suppression were assessed by computer-assisted graphical evaluation.

[1] = target: T1, purified, recombinant human DPIV (Homo sapiens, UniProt P27487); test: Inhibition of enzymatic activity of DPIV (fluorogenic substrate hydrolysis); assay type: biochemical; settings: highest test item concentration 25 μM
T1 construct: made in house; host or cells: Sf9 insect cells
Method: (§1) The inhibition of the enzymatic activity of DPIV and related enzymes was measured by using purified, recombinant human DPIV (purified from transfected Sf9 cells, final enzyme concentration approx. 1 nM) as well as purified, recombinant DP8 and DP9 (purchased from Biomol). The assay was performed in 0.05M TRIS/HCl puffer pH 7.5, supplemented with 0.05% Triton (v/v), 0.05% BSA (w/v), 2 mM MgCl2.
(§2) The enzymatic activity of DPIV was assessed by the hydrolysis of the fluorogenic substrates H-Gly-Pro-4-amino-7-methyl coumarine (abbreviation of fluorogenic group AMC; purchased from Bachem) or (Ala-Pro)2-Rhodamine 110 (abbreviation R110). The final substrate concentrations were 50 μM or 1 μM, respectively.
(§3) The assay was performed in white microtitre plates for fluorescence measurements. The test items, substrate and enzyme were diluted in assay buffer. The highest test item concentration used was 25 μM. For the calculation of IC50 values, at least 16 log 2-dilutions of each test item were analyzed. As controls, the DPIV activity in the absence of test items as well as the spontaneous hydrolysis of the substrate was determined.
(§4) The release of the fluorescent hydrolysis product AMC was measured at an excitation wavelength of 380 nm and an emission wavelength of 460 nm by using a microtitre fluorescence reader immediately after substrate addition as well as after 30, 60 and 120 min. The hydrolysis of the substrate (Ala-Pro)2-Rhodamine 110 was determined at an exitation wavelength of 488 nm and emission wavelength of 530 nm.

[2] = target: T2, cytosolic aminopeptidase (cAAP) purified from Jurkat cells (Homo sapiens, UniProt P55786); test: Inhibition of enzymatic activity of cytosolic aminopeptidase (cAAP); assay type: biochemical; settings: highest test item concentration 25 μM; for IC50: read-out: meas. IC50 (cAAP)
T2 construct: The cytosolic aminopeptidase (cAAP) was purified from Jurkat cells; endogenous in cells; host or cells: Jurkat cells (enzyme purified from them)

NHEK cells = test: Inhibition of DNA synthesis and proliferation of normal human epidermal keratinocytes (NHEK); assay type: cell-based; settings: EGF-stimulated NHEK, BrdU incorporation, read-out: Supp. DNA Synt. NHEK IC50
Method: NHEK cells (primary cells from person) were purchased from PromoCell. For these assay the adherent cells were cultured in serum-free Keratinocyte Growth medium 2 supplemented with epidermal growth factor (EGF) and bovine pituitary extract for 48 hours in flat-bottom microtiter plates. EGF stimulates the DNA synthesis and proliferation of these cells. Test items were added in concentrations from 0.1 up to 100 μM.
The DNA synthesis was assessed by incorporation of bromdesoxyuridine (BrdU) and subsequent detection of BrdU by ELISA technique. Based on these raw data the relative proliferation response in relation to cells cultured in the absence of test compound (100% control) was calculated. IC50 values of proliferation suppression were assessed by computer-assisted graphical evaluation.

[3] = tested on: purified, recombinant DP8 and DP9; test: Inhibition of enzymatic activity of DP8/9; assay type: biochemical; settings: highest test item concentration 25 μM
Method: as §1, §2, §3, §4

[4] = target: T3, aminopeptidase N (APN), purified recombinant human enzyme (Homo sapiens, UniProt P15144); test: Inhibition of enzymatic activity of aminopeptidase N (fluorogenic substrate hydrolysis); assay type: biochemical; settings: highest test item concentration 25 μM
T3 construct: made in house; host or cells: ECV cells (transfected)
Method: The inhibition of the enzymatic activity of aminopeptidase N (APN) was measured by using purified, recombinant human enzyme (purified from transfected ECV cells, final enzyme concentration approx. 1 nM). […] The assay was performed in 0.05M TRIS/HCl puffer pH 7.5, supplemented with 0.05% Triton (v/v), 0.05% BSA (w/v), 2 mM MgCl2.
The aminopeptidase acitivities wer assessed by the hydrolysis of the fluorogenic substrates H-Ala-4-amino-7-methyl coumarine (abbreviation of fluorogenic group AMC; purchased from Bachem) or (Ala-)2-Rhodamine 110 (abbreviation R110). The final substrate concentrations were again 50 and 1 μM, respectively.
as §3
The release of the fluorescent hydrolysis products AMC and R110 was measured as described above for DPIV substrates.

T lymphocytes (T cells) = test: Suppression of DNA synthesis of PHA-stimulated T lymphocytes; assay type: cell-based; settings: Homo sapiens, T-cell, 48 h, tritium thymidine incorporation, read-out: Supp. DNA Synt. T-cell IC50
Method: Peripheral blood mononuclear cells (PBMC) from healthy human volunteers were freshly isolated by density gradient centrifugation. T lymphocytes (T cells) were isolated from PBMC fractions via nylon wool adherence. Both cell populations were cultured in serum free lymphocyte medium (AIMV medium, Invitrogen) and stimulated by addition of 1 μg/ml Phytohemagglutinine for 48 hours in 96 well flat-bottom microtiter plates. Test compounds were added at concentration ranges from 0.1 up to 250 μM over the total assay period.
DNA synthesis of proliferating PBMC was assessed by incorporation of nucleotide analogue bromdesoxyuridine (BrdU) and subsequent detection of BrdU by ELISA technique (Cell Proliferation Biotrak™ ELISA system, GE Health Care) according to the protocol of the manufacturer. DNA synthesis of proliferating T cells was determined by incorporation of radio labelled tritium thymidine and subsequent radio detection.
Data output was based on raw data and calculation of relative proliferation response in relation to PHA-activated T cells in the absence of test compound (100% control). The IC50 value of proliferation suppression was assessed by graphical evaluation.

T2 sequence (P55786 whole entry): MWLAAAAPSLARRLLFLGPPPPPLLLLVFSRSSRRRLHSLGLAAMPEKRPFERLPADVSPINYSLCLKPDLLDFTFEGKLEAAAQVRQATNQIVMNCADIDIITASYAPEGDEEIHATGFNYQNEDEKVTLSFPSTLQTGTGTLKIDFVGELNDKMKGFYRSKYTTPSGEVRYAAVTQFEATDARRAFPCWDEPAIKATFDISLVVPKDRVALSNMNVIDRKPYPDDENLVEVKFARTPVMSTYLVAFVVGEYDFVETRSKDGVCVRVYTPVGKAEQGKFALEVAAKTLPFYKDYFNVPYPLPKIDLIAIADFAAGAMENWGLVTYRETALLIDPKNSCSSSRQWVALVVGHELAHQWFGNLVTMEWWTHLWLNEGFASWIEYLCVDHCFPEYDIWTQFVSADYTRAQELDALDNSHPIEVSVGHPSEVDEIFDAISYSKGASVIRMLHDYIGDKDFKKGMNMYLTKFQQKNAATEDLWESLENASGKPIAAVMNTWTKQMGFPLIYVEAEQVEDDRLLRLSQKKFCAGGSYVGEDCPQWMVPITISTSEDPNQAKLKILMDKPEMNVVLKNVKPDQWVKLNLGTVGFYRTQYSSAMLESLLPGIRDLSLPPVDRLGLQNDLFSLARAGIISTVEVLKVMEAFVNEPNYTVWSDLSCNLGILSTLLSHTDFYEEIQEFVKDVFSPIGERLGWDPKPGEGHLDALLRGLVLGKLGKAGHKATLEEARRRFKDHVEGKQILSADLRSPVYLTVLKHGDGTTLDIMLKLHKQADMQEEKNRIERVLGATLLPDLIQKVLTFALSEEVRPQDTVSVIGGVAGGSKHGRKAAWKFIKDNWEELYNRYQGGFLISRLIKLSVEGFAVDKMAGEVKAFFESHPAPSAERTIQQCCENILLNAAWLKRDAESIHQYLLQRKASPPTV
T1 sequence (P27487 whole entry): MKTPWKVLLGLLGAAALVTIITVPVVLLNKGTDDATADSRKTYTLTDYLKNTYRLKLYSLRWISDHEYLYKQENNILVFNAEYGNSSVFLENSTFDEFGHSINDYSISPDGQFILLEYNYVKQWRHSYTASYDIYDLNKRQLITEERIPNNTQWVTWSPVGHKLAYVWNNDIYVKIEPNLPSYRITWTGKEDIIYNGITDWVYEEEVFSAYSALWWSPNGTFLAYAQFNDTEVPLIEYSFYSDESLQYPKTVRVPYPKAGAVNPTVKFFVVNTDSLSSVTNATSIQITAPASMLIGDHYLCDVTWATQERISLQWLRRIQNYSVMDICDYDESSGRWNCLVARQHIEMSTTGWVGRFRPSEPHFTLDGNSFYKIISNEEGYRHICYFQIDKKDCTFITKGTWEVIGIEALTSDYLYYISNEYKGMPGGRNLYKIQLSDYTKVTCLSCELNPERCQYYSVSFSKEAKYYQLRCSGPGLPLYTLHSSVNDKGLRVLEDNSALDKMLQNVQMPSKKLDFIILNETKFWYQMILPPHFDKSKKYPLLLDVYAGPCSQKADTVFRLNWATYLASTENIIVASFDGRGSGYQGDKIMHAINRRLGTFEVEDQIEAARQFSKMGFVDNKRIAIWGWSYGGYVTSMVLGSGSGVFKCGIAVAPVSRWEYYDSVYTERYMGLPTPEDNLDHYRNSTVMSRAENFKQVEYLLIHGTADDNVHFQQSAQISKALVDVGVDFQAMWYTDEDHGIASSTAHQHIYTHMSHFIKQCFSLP
T3 sequence (P15144 whole entry): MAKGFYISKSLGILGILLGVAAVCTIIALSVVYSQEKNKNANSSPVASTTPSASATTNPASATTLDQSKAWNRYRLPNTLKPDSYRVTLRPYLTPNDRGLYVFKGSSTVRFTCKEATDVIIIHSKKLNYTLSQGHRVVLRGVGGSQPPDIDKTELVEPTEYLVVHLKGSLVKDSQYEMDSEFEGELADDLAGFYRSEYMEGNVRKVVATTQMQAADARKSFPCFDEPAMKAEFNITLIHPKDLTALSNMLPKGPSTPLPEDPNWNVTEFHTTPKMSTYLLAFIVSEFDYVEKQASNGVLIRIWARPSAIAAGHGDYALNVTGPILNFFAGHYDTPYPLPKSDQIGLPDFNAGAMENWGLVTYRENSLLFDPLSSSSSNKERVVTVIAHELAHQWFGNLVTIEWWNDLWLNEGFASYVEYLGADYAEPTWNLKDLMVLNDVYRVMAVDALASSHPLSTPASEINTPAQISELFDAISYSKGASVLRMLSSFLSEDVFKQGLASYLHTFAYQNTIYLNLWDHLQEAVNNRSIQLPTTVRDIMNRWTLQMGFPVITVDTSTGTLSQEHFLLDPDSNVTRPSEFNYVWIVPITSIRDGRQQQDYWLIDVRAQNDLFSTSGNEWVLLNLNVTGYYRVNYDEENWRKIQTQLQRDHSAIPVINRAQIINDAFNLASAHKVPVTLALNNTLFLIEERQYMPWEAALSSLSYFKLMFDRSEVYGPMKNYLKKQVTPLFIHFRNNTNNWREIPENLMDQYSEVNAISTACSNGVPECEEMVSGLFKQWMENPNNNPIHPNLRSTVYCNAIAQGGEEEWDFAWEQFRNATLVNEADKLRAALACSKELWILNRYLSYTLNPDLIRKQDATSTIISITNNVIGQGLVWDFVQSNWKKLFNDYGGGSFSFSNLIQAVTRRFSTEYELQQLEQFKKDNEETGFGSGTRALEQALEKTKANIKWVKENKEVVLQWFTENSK

| SMILES | meas. IC50 (DPIV) [1] | meas. IC50 (cAAP) [2] | meas. IC50 (DP8/9) [3] | meas. IC50 (APN) [4] | IC50 (T lymphocytes (T cells)) | IC50 [2] | IC50 ([4]; read-out: meas. IC50 (APN)) | IC50 (SZ95 cells) | IC50 (NHEK cells; Homo sapiens, NHEK, 48 h) | IC50 (NHEK cells; 48 hours) |
| --- | --- | --- | --- | --- | --- | --- | --- | --- | --- | --- |
| CCCCCCCC(=O)OC(C(=O)NCC(C)(C)CNC(=O)CC(Cc1cc(F)ccc1F)NC(=O)OC(C)(C)C)C(COCc1ccc(OC)cc1)NC(=O)OC(C)(C)C (centres unmarked) [Compound C19.007] | no in- hibition | no in- hibition | no in- hibition | no in- hibition | 78.6 µM | – | – | 56.8 µM | ≥ 120 µM | – |
| CC(C)(CNC(=O)CC(Cc1cc(F)ccc1F)NC(=O)OCc1ccccc1)CNC(=O)C(O)C(COCc1ccccc1)NC(=O)OCc1ccccc1 (centres unmarked) [Compound C19.008] | no in- hibition | – | no in- hibition | no in- hibition | 5.7 µM | 5.8 µM | – | 8.6 µM | 6.77 µM | – |
| CCCCCCCC(=O)NC(CC(=O)NCC(C)(C)CNC(=O)C(O)C(COCc1ccccc1)NC(=O)CCCCCCC)Cc1cc(F)ccc1F (centres unmarked) [Compound C19.010] | no in- hibition | – | no in- hibition | no in- hibition | 7.6 µM | 3.5 µM | – | 12.2 µM | 48.1 µM | – |
| CCCCCCCCCCCCCC(=O)NC(CC(=O)NCC(C)(C)CNC(=O)C(O)C(COCc1ccccc1)NC(=O)CCCCCCCCCCCCC)Cc1cc(F)ccc1F (centres unmarked) [Compound C19.011] | no in- hibition | no in- hibition | no in- hibition | no in- hibition | 168 µM | – | – | ≥ 155 µM | ≥ 110 µM | – |
| CCCCCC(=O)NC(CC(=O)NCC(C)(C)CNC(=O)C(O)C(COCc1ccccc1)NC(=O)CCCCC)Cc1cc(F)ccc1F (centres unmarked) [Compound C19.012] | no in- hibition | – | no in- hibition | no in- hibition | 12.2 µM | 0.51 µM | – | 28.6 µM | 17.5 µM | – |
| CCCCCC(=O)NC(CC(=O)NCC(C)(C)CNC(=O)C(O)C(COCc1ccc(OC)cc1)NC(=O)CCCCC)Cc1cc(F)ccc1F (centres unmarked) [Compound C19.013] | no in- hibition | no in- hibition | no in- hibition | no in- hibition | 6.5 µM | – | – | 17.4 µM | 15.3 µM | – |
| CCCCCC(=O)NC(CC(=O)NCC(C)(C)CNC(=O)C(OC(=O)CCCCC)C(COCc1ccccc1)NC(=O)CCCCC)Cc1cc(F)ccc1F (centres unmarked) [Compound C19.014] | no in- hibition | no in- hibition | no in- hibition | no in- hibition | 19.8 µM | – | – | ≥ 149 µM | 2.97 µM | – |
| COc1ccc(COCC(NC(=O)C(C)(C)C)C(OCc2ccc(OC)cc2)C(=O)NCC(C)(C)CNC(=O)CC(Cc2cc(F)ccc2F)NC(=O)C(C)(C)C)cc1 (centres unmarked) [Compound C19.018] | no in- hibition | no in- hibition | no in- hibition | no in- hibition | 3.3 µM | – | – | 9.1 µM | 9.9 µM | – |
| CC(C)(CNC(=O)CC(Cc1cc(F)ccc1F)NC(=O)OC(C)(C)C)CNC(=O)C(O)C(COCc1ccccc1)NC(=O)OC(C)(C)C (centres unmarked) [Compound C19.023] | No in- hibition | no in- hibition | no in- hibition | no in- hibition | 11.5 µM | – | – | 15.9 µM | – | 41 µM |

Second part, led by results:

| meas. IC50 (DPIV) [1] | meas. IC50 (cAAP) [2] | meas. IC50 (DP8/9) [3] | meas. IC50 (APN) [4] | IC50 (T lymphocytes (T cells)) | IC50 [2] | IC50 ([4]; read-out: meas. IC50 (APN)) | SMILES | IC50 (SZ95 cells) | IC50 (NHEK cells; Homo sapiens, NHEK, 48 h) | IC50 (NHEK cells; 48 hours) |
| --- | --- | --- | --- | --- | --- | --- | --- | --- | --- | --- |
| no in- hibition | – | no in- hibition | – | 33.9 µM | 3.4 µM | 5.9 µM | CCOC(=O)NC(CC(=O)NCC(C)(C)CNC(=O)C(O)C(COCc1ccccc1)NC(=O)OCC)Cc1cc(F)ccc1F (centres unmarked) [Compound C19.009] | 59.1 µM | 100 µM | – |
| no in- hibition | no in- hibition | no in- hibition | no in- hibition | 8 µM | – | – | CC(C)(C)OC(=O)NC(CNC(=O)c1cccc(NC(=O)C(O)C(COCc2ccccc2)NC(=O)OC(C)(C)C)c1)Cc1cc(F)ccc1F (centres unmarked) [Compound C19.015] | 5.75 µM | 15.9 µM | – |
| no in- hibition | no in- hibition | no in- hibition | no in- hibition | 15.7 µM | – | – | CC(C)(CNC(=O)CC(Cc1cc(F)ccc1F)NC(=O)C(C)(C)C)CNC(=O)C(O)C(COCc1ccccc1)NC(=O)C(C)(C)C (centres unmarked) [Compound C19.016] | 49.2 µM | 37.9 µM | – |
| no in- hibition | no in- hibition | no in- hibition | no in- hibition | 30.5 µM | – | – | CCCC(=O)NC(CC(=O)NCC(C)(C)CNC(=O)C(O)C(COCc1ccccc1)NC(=O)CCC)Cc1cc(F)ccc1F (centres unmarked) [Compound C19.017] | ≥ 173 µM | 64.6 µM | – |
| no in- hibition | no in- hibition | no in- hibition | no in- hibition | 122 µM | – | – | CC(C)(CNC(=O)CC(Cc1cc(F)ccc1F)NC(=O)OC(C)(C)C)CNC(=O)C(OC(=O)C(C)(C)C)C(COCc1ccccc1)NC(=O)OC(C)(C)C (centres unmarked) [Compound C19.019] | 70.6 µM | ≥ 131 µM | – |
